Like-named read-outs stand apart in the source and are kept apart here. Blank lines part the entries; values can stand above or below the molecule they belong to.
Key:
[1] = tested on: Acinetobacter baumannii strains; test: Broth macrodilution MICs under conditions used for synergy time-kill assays; format: cell-based; settings: for MIC: Acinetobacter baumannii, read-out: Broth macrodilution MICs
Protocol: (§1) Broth microdilution MIC testing (CLSI M07-A9) was performed on the Acinetobacter baumannii (AB) reference strain ATCC 19606 (obtained from ATCC) and 10 AB strains, including 8 MDRAB (resistant to ≧3 of the following: beta-lactams, gentamicin, fluoroquinolones and tetracycline; obtained from Eurofins Medinet Chantilly, Va.). The requirement of 0.002% polysorbate 80 (P-80) for testing oritavancin also necessitated the testing of COL in the presence of P80. Checkerboard assays were used to determine activity of antimicrobial combinations; fractional inhibitory concentration indices (FICI) were used to define synergy, indifference or antagonism. Broth macrodilution MICs were determined following conditions used for synergy time-kill assays. Synergy time-kill studies were performed following CLSI guidelines.
(§2) Minimum inhibitory concentrations (MICs). Broth microdilution MICs were determined according to CLSI (CLSI document M7-A9, 2013) guidelines with the exception that COL MICs were also determined in the presence of 0.002% polysorbate 80 (P80) since P80 was to be present in the combination tests because of its requirement for testing oritavancin. Broth macrodilution MICs were determined following conditions used for synergy time-kill assays.

[2] = tested on: Acinetobacter baumannii strains; test: Synergy time-kill assay; format: cell-based; settings: concentration of the agent within the ORI+COL combination, ≧2 log CFU/mL decrease vs most active constituent at 24 h, 0.002% P80
Protocol: as §1
Time-kill assays followed CLSI guidelines (NCCLS, CLSI document M26-A2, 1999) with the exception that 96 deep-well plates were used. Exponential-phase bacteria were diluted to approximately 5×10^5 colony-forming units (CFU)/mL and exposed to ORI or COL alone, or in combination in CAMHB containing 0.002% P80. Bacteria were enumerated by serial dilution plating. To prevent drug carryover during serial dilution plating, aliquots of the drug-challenged culture were added to an equal volume of 25 mg/mL activated charcoal suspension. […] All experiments were repeated at least two times and a representative experiment is presented in the plots; data points are an average of duplicate CFU/mL determinations within an experiment.

[3] = tested on: Acinetobacter baumannii strains; test: Broth macrodilution MICs under conditions used for synergy time-kill assays; format: cell-based
[4] = tested on: S. aureus (MSSA, MRSA, VRSA); settings: within 15 minutes to 2 hours, MRSA and VRSA; cited from earlier work
[5] = tested on: Acinetobacter baumannii strains; test: Broth microdilution MIC of colistin in absence and presence of 0.002% polysorbate 80; format: cell-based; settings: for Colistin MIC −P80: absence of polysorbate 80; for Colistin MIC +P80: presence of 0.002% polysorbate-80
Protocol: as §1, with “([…])” for “(AB) reference strain ATCC 19606 (obtained from ATCC)”
as §2

[6] = strain 2691748 (Non-MDR), agent alone, time-kill conditions
[7] = strain 2691818 (Non-MDR), agent alone, time-kill conditions
[8] = strain 2691999 (MDR), agent alone, time-kill conditions
[9] = strain 2692406 (MDR), agent alone, time-kill conditions
[10] = strain 2692650 (MDR), agent alone, time-kill conditions
[11] = strain 2693922 (MDR), agent alone, time-kill conditions
[12] = strain 2694038 (MDR), agent alone, time-kill conditions
[13] = strain 2694224 (MDR), agent alone, time-kill conditions
[14] = strain 2694227 (MDR), agent alone, time-kill conditions

SMILES: CN[C@H](CC(C)C)C(=O)N[C@H]1C(=O)N[C@@H](CC(N)=O)C(=O)N[C@H]2C(=O)N[C@H]3C(=O)N[C@H](C(=O)N[C@H](C(=O)O)c4cc(O)cc(O)c4-c4cc3ccc4O)[C@H](O[C@H]3C[C@](C)(N)[C@@H](O)[C@H](C)O3)c3ccc(c(Cl)c3)Oc3cc2cc(c3O[C@@H]2O[C@H](CO)[C@@H](O)[C@H](O)[C@H]2O[C@H]2C[C@](C)(NCc3ccc(-c4ccc(Cl)cc4)cc3)[C@@H](O)[C@H](C)O2)Oc2ccc(cc2Cl)[C@H]1O [ORI, Oritavancin]
- MIC [1]: > 8 µg/mL
- Broth macrodilution MICs [1, 6]: >8 µg/mL
- Broth macrodilution MICs [1, 7]: >8 µg/mL
- Broth macrodilution MICs [1, 8]: >8 µg/mL
- Broth macrodilution MICs [1, 9]: >8 µg/mL
- Broth macrodilution MICs [1, 10]: >8 µg/mL
- Broth macrodilution MICs [1, 11]: >8 µg/mL
- Broth macrodilution MICs [1, 12]: >8 µg/mL
- Broth macrodilution MICs [1, 13]: >8 µg/mL
- Broth macrodilution MICs [1, 14]: >8 µg/mL
- Concentrations that yielded synergy in time-kill ([2]; strain 2691748 (Non-MDR)): 8 µg/mL
- Concentrations that yielded synergy in time-kill ([2]; strain 2691818 (Non-MDR)): 4 µg/mL
- Concentrations that yielded synergy in time-kill ([2]; strain 2691999 (MDR)): 4 µg/mL
- Concentrations that yielded synergy in time-kill ([2]; strain 2692406 (MDR)): 4 µg/mL
- Concentrations that yielded synergy in time-kill ([2]; strain 2692650 (MDR)): 4 µg/mL
- Concentrations that yielded synergy in time-kill ([2]; strain 2692721 (MDR)): 4 µg/mL
- Concentrations that yielded synergy in time-kill ([2]; strain 2693922 (MDR)): 4 µg/mL
- Concentrations that yielded synergy in time-kill ([2]; strain 2694038 (MDR)): 4 µg/mL
- Concentrations that yielded synergy in time-kill ([2]; strain 2694224 (MDR)): 4 µg/mL
- Concentrations that yielded synergy in time-kill ([2]; strain 2694227 (MDR)): 4 µg/mL
- Concentrations that yielded synergy in time-kill ([2]; strain ATCC 19609 (Non-MDR)): 4 µg/mL
- MIC ([3]; ATCC19609, read-out: Broth macrodilution MICs): > 8 µg/mL
- Reduction of exponentially-growing S. aureus (rapidity of bactericidal activity) [4]: ≥ 3 log

- Fold change in MIC (−P80/+P80) ([5]; strain 2691748 (Non-MDR)): 8
- Colistin MIC −P80 ([5]; strain 2691748 (Non-MDR)): 4 µg/mL
- Colistin MIC +P80 ([5]; strain 2691748 (Non-MDR)): 0.5 µg/mL
- Fold change in MIC (−P80/+P80) ([5]; strain 2691818 (Non-MDR)): 2
- Colistin MIC −P80 ([5]; strain 2691818 (Non-MDR)): 2 µg/mL
- Colistin MIC +P80 ([5]; strain 2691818 (Non-MDR)): 1 µg/mL
- Fold change in MIC (−P80/+P80) ([5]; strain 2691999 (MDR)): 4
- Colistin MIC −P80 ([5]; strain 2691999 (MDR)): 1 µg/mL
- Colistin MIC +P80 ([5]; strain 2691999 (MDR)): 0.25 µg/mL
- Fold change in MIC (−P80/+P80) ([5]; strain 2692406 (MDR)): 16
- Colistin MIC −P80 ([5]; strain 2692406 (MDR)): 2 µg/mL
- Colistin MIC +P80 ([5]; strain 2692406 (MDR)): 0.125 µg/mL
- Fold change in MIC (−P80/+P80) ([5]; strain 2692650 (MDR)): 4
- Colistin MIC −P80 ([5]; strain 2692650 (MDR)): 0.5 µg/mL
- Colistin MIC +P80 ([5]; strain 2692650 (MDR)): 0.125 µg/mL
- Fold change in MIC (−P80/+P80) ([5]; strain 2692721 (MDR)): 4
- Colistin MIC −P80 ([5]; strain 2692721 (MDR)): 1 µg/mL
- Colistin MIC +P80 ([5]; strain 2692721 (MDR)): 0.25 µg/mL
- Fold change in MIC (−P80/+P80) ([5]; strain 2693922 (MDR)): 4
- Colistin MIC −P80 ([5]; strain 2693922 (MDR)): 0.5 µg/mL
- Colistin MIC +P80 ([5]; strain 2693922 (MDR)): 0.125 µg/mL
- Fold change in MIC (−P80/+P80) ([5]; strain 2694038 (MDR)): 4
- Colistin MIC −P80 ([5]; strain 2694038 (MDR)): 1 µg/mL
- Colistin MIC +P80 ([5]; strain 2694038 (MDR)): 0.25 µg/mL
- Fold change in MIC (−P80/+P80) ([5]; strain 2694224 (MDR)): 4
- Colistin MIC −P80 ([5]; strain 2694224 (MDR)): 1 µg/mL
- Colistin MIC +P80 ([5]; strain 2694224 (MDR)): 0.25 µg/mL
- Fold change in MIC (−P80/+P80) ([5]; strain 2694227 (MDR)): 8
- Colistin MIC −P80 ([5]; strain 2694227 (MDR)): 1 µg/mL
- Colistin MIC +P80 ([5]; strain 2694227 (MDR)): 0.125 µg/mL
- Fold change in MIC (−P80/+P80) ([5]; strain ATCC 19609 (Non-MDR)): 4
- Colistin MIC −P80 ([5]; strain ATCC 19609 (Non-MDR)): 1 µg/mL
- Colistin MIC +P80 ([5]; strain ATCC 19609 (Non-MDR)): 0.25 µg/mL
SMILES: CCC(C)CCCC(=O)N[C@H](CCN)C(=O)N[C@H](C(=O)N[C@@H](CCN)C(=O)N[C@H]1CCNC(=O)[C@H]([C@@H](C)O)NC(=O)[C@H](CCN)NC(=O)[C@H](CCN)NC(=O)[C@H](CC(C)C)NC(=O)[C@@H](CC(C)C)NC(=O)[C@H](CCN)NC1=O)[C@@H](C)O (stereo in doubt) [COL, Colistin]
- MIC [1, 6]: > 16 µg/mL
- MIC [1, 7]: 0.25 µg/mL
- MIC [1, 8]: 1 µg/mL
- MIC [1, 9]: 0.25 µg/mL
- MIC [1, 10]: 0.25 µg/mL
- MIC ([1]; strain 2692721 (MDR), agent alone, time-kill conditions): 0.5 µg/mL
- MIC [1, 11]: 0.5 µg/mL
- MIC [1, 12]: 0.12 µg/mL
- MIC [1, 13]: 0.5 µg/mL
- MIC [1, 14]: 0.5 µg/mL
- Concentrations that yielded synergy in time-kill ([2]; strain 2691748 (Non-MDR)): 1 µg/mL
- Concentrations that yielded synergy in time-kill ([2]; strain 2691818 (Non-MDR)): 0.12 µg/mL
- Concentrations that yielded synergy in time-kill ([2]; strain 2691999 (MDR)): 0.12 µg/mL
- Concentrations that yielded synergy in time-kill ([2]; strain 2692406 (MDR)): 0.12 µg/mL
- Concentrations that yielded synergy in time-kill ([2]; strain 2692650 (MDR)): 0.12 µg/mL
- Concentrations that yielded synergy in time-kill ([2]; strain 2692721 (MDR)): 0.12 µg/mL
- Concentrations that yielded synergy in time-kill ([2]; strain 2693922 (MDR)): 0.12 µg/mL
- Concentrations that yielded synergy in time-kill ([2]; strain 2694038 (MDR)): 0.06 µg/mL
- Concentrations that yielded synergy in time-kill ([2]; strain 2694224 (MDR)): 0.12 µg/mL
- Concentrations that yielded synergy in time-kill ([2]; strain 2694227 (MDR)): 0.12 µg/mL
- Concentrations that yielded synergy in time-kill ([2]; strain ATCC 19609 (Non-MDR)): 0.06 µg/mL
- MIC ([3]; ATCC19609, strain ATCC 19609 (Non-MDR), agent alone, time-kill conditions, read-out: Broth macrodilution MICs): 0.25 µg/mL

— patent US9775878B2, “Methods for treating bacterial infections using oritavancin and polymyxins” (The Medicines Company, priority 2013, dated 2017)
